Data on 5 compounds can be found in patent US20100029636A1, “Lck inhibitors” (priority 2006, published 2010).

One assay deals with Lck (Homo sapiens, UniProt P06239). The experiment in a line: Biochemical Lck kinase assay (TR-FRET, LANCE).
For assay [1], the system named is blood IL-2 levels induced by SEB. The experiment in a line: In vivo model: mouse SEB/IL-2. The arrangement: species or system BALB/c mice. Conditions: 100 mg/kg po, serum IL-2 two hours after SEB. On the procedure:
The compound to be tested is administered to BALB/c mice followed e.g. 1 h later, by an intravenous administration of 3 µg per mouse of SEB to induce a rise in blood IL-2 levels. Two hours after the administration of SEB, mice are bled, and levels of IL-2 are measured in the serum using standard methods. Under control conditions (vehicle only) IL-2 concentrations measured are mostly in the range of 2000 to 8000 pg/ml.

Lck, sequence (P06239 whole entry, species assumed): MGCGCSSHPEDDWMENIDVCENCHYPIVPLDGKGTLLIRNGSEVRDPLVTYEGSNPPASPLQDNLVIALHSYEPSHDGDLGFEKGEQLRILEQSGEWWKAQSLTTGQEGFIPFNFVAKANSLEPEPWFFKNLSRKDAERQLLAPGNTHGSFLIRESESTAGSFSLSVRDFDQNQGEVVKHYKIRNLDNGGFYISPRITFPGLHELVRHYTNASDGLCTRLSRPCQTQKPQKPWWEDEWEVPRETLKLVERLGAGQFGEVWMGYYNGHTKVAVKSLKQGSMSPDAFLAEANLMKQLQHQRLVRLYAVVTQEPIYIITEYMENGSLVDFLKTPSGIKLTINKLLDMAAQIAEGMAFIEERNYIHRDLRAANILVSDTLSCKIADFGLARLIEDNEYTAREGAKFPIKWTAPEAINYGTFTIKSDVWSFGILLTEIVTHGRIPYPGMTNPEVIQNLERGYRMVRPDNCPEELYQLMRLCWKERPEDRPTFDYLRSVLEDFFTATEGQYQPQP

For `CCc1ccc(OC(=O)Nc2ccc(-c3cnc4c(-c5cccc(N6CCN(C)CC6)c5)cnn4c3N)cc2)cc1` [Example 77], at Lck, the IC50 stood at 25 nM. On to `CC(C)COC(=O)Nc1ccc(-c2cnc3c(-c4ccc(N5CCN(C)CC5)cc4)cnn3c2N)cc1` [Example 10, (4-{7-Amino-3-[4-(4-methyl-piperazin-1-yl)-phenyl]-pyrazolo[1,5-a]pyrimidin-6-yl}-phenyl)-carbamic acid isobutyl ester], for which the “inhibits the secretion of IL-2” value in assay [1] was 59%. Further, the IC50 at Lck was 10 nM.

As for `Cc1cccc(OC(=O)Nc2ccc(-c3cnc4c(-c5cccc(N6CCN(C)CC6)c5)cnn4c3N)cc2)c1C` [Example 65], the IC50 against Lck came out at 25 nM. As to `Cc1ccc(NC(=O)Nc2ccc(-c3cnc4c(-c5cccc(N6CCN(C)CC6)c5)cnn4c3N)cc2)cc1` [Example 126], 15 nM corresponded to half-maximal inhibition against Lck (IC50). Take `Cc1ccc([C@H](C)NC(=O)Nc2ccc(-c3cnc4c(-c5cccc(N6CCN(C)CC6)c5)cnn4c3N)cc2)cc1` [Example 172]: at Lck, the IC50 is 34 nM.
